Data on 5 compounds can be found in US12673953B2, “Process for preparing an amorphous form of 2-[3-[4-amino-3-(2-fluoro-4-phenoxyphenyl)pyrazolo[3,4-d]pyrimidin-1-yl]piperidine-1-carbonyl]-4-methyl-4-[4-(oxetan-3-yl)piperazin-1-yl]pent-2-enenitrile” (Principia Biopharma Inc., priority 2019, dated 2026).

Holding throughout (assay type): physicochemical
Series [1] is described as follows: Mean bulk density, mean tapped density and Hausner ratio (modified USP <616>). Conditions: for Hausner ratio: ratio of initial volume to constant volume (Vo/Vf). Here is the method:
Mean bulk density and mean tapped density were determined using a modified method based on USP <616>. Powder was poured into a clean, dry pre-weighed 25 mL cylinder. Powder was added to a total volume of 20 mL to 25 mL without compacting the sample. The mass and initial volume (Vo) of the powder were recorded. The mean bulk density was determined as the average of the mass over initial volume across multiple samples. To determine mean tapped density, the sample was tapped using a Copley JV2000 tapped density tester using the following number of taps: 500, 750, and sets of 1250 taps up to 10,000. The volume was recorded after each set of taps, and the sample was tapped until it reached a constant volume (Vf). The mean tapped density was determined as the average of mass over constant volume across multiple samples. Each sample was analyzed in duplicate. The Hausner ratio was calculated as the ratio of initial volume to the constant volume (Vo/Vf).

A short description of series [2]: Thermogravimetric analysis (TA Instruments Q5000 TGA). Here is the method: Thermal gravimetric analysis of the samples was performed using the TA Instruments Q5000 TGA. Table 5 provides thermogravimetric analysis data for several distinct solid forms of Compound (I), including mass loss information from multiple replicates across different temperature ranges. As above, Comparator 1 corresponds to the solid form of Compound (I) prepared substantially in accordance with the process detailed in Step 1A in Example 1 of WO 2015/127310. Also, as above, Comparator 2 corresponds to the solid form of Compound (I) prepared substantially in accordance with the process detailed in Example 31 of WO 2014/039899. Comparator 3 corresponds to the solid form of Compound (I) prepared substantially in accordance with the process detailed in Step 1 in Example 1 of WO 2015/127310.

Series [3] can be described thus: Wet particle size distribution by laser diffraction (Malvern Mastersizer 3000). Conditions: dispersant heptane with 0.2% Span 80. The procedure:
Wet particle size distributions were measured using a Malvern Mastersizer 3000 laser diffraction particle size analyzer, with stir speed set at 2200 rpm. Heptane with 0.2% by volume of Span 80 was used as dispersant. To obtain distribution measurements, the Hydro MV medium volume automated dispersion unit was filled with dispersant and aligned. The background was then measured. 80 to 100 mg of sample weighed into a 20 mL vial, to which approximately 3 mL of dispersant was added. The mass was adjusted based on the particle size, with obscuration between 5% and 16%. The whole sample was added to the Hydro MV unit, and the sample was analyzed five times after a 160 second pre-measurement delay. Analysis time was 20 seconds (10 seconds with the red laser, 10 seconds with the blue laser) with no delay between measurements. Data obtained was processed using Mie theory with a sample refractive index of 1.69 and absorption index of 0.1, using the general purpose model with normal sensitivity and the non-spherical particle type. 15 sets of raw data were averaged to form the Global Mean, which represents the average for a sample. If the sample was determined to be variable, further preparations were examined to determine which results were anomalous. Any anomalous results were discarded. Samples were thoroughly mixed prior to sampling (e.g., some samples were aliquoted using a spinning […]).

A short description of series [4]: Modulated differential scanning calorimetry, glass transition temperature (TA Instrument Q2000 DSC). Conditions: for Tg at 25° C., 0% RH: 0% relative humidity. The procedure: Modulated differential scanning calorimetry (DSC) analysis was completed with a TA Instrument Q2000 DSC. The samples were heated at 2° C. min^−1, temperature modulation parameters of 0.318° C. (amplitude), and over a temperature range of 6-80° C. to 200° C. The samples were analyzed using a closed aluminum pan.
Background: Differential scanning calorimetry records heat flow against a reference as temperature is scanned.

Regarding `CC(C)(C=C(C#N)C(=O)N1CCCC(n2nc(-c3ccc(Oc4ccccc4)cc3F)c3c(N)ncnc32)C1)N1CCN(C2COC2)CC1` (stereo not shown) [Comparator 1, 2-[3-[4-amino-3-(2-fluoro-4-phenoxy-phenyl)pyrazolo[3,4-d]pyrimidin-1-yl]piperidine-1-carbonyl]-4-methyl-4-[4-(oxetan-3-yl)piperazin-1-yl]pent-2-enenitrile], in series [1], the Mean bulk density was determined as 0.28 g/cc, the Mean tapped density was 0.39 g/cc and the Hausner ratio came to 1.4. Besides, the “Mass loss during TGA” value in series [2] (between 40° C. and 118° C.) was 3.3% mass loss between 40 °C and 118 °C. Also, the “Mass loss during TGA” value in series [2] (between 118° C. and 237° C.) was 3.2% mass loss between 118 °C and 237 °C. In addition, in series [3], the “Wet particle size distribution D10” value is recorded as 18.3 μm, the “Wet particle size distribution D50” value is 237 μm and the “Wet particle size distribution D90” value came out at 694 μm.

In the case of `CC(C)(C=C(C#N)C(=O)N1CCCC(n2nc(-c3ccc(Oc4ccccc4)cc3F)c3c(N)ncnc32)C1)N1CCN(C2COC2)CC1` (stereo not shown) [Comparator 2, 2-[3-[4-amino-3-(2-fluoro-4-phenoxy-phenyl)pyrazolo[3,4-d]pyrimidin-1-yl]piperidine-1-carbonyl]-4-methyl-4-[4-(oxetan-3-yl)piperazin-1-yl]pent-2-enenitrile], the “Tg at 25° C., 0% RH” value in series [4] was 90.1 °C. Moreover, in series [1], the Mean bulk density worked out at 0.20 g/cc, the Mean tapped density is recorded as 0.27 g/cc and the Hausner ratio amounted to 1.4. Also, the “Mass loss during TGA” value in series [2] (between 40° C. and 135° C.) is 3.7% mass loss between 40 °C and 135 °C. Besides, in series [2] (between 135° C. and 233° C.), the “Mass loss during TGA” value is 2.3% mass loss between 135 °C and 233 °C. Moreover, in series [3], the “Wet particle size distribution D10” value is 56.9 μm, the “Wet particle size distribution D50” value came to 258 μm and the “Wet particle size distribution D90” value is on record as 575 μm.

As to `CC(C)(C=C(C#N)C(=O)N1CCCC(n2nc(-c3ccc(Oc4ccccc4)cc3F)c3c(N)ncnc32)C1)N1CCN(C2COC2)CC1` (stereo not shown) [Comparator 3, 2-[3-[4-amino-3-(2-fluoro-4-phenoxy-phenyl)pyrazolo[3,4-d]pyrimidin-1-yl]piperidine-1-carbonyl]-4-methyl-4-[4-(oxetan-3-yl)piperazin-1-yl]pent-2-enenitrile], the “Tg at 25° C., 0% RH” value in series [4] stood at 90.1 °C. For the same compound, the “Mass loss during TGA” value in series [2] (between 30° C. and 100° C.) was 3.8% mass loss between 30 °C and 100 °C; in series [2] (between 100° C. and 140° C.), 17.6% mass loss between 100 °C and 140 °C.

In the case of `CC(C)(C=C(C#N)C(=O)N1CCCC(n2nc(-c3ccc(Oc4ccccc4)cc3F)c3c(N)ncnc32)C1)N1CCN(C2COC2)CC1` (stereo not shown) [Compound (I) prepared by a precipitation process described h] [2-[3-[4-amino-3-(2-fluoro-4-phenoxy-phenyl)pyrazolo[3,4-d]pyrimidin-1-yl]piperidine-1-carbonyl]-4-methyl-4-[4-(oxetan-3-yl)piperazin-1-yl]pent-2-enenitrile], the “Tg at 25° C., 60% RH” value in series [4] (60% relative humidity, listed as Compound (I) prepared by precipitation process described herein (not micronized)) was 69.6 °C. Further, the Hausner ratio in series [1] is 1.2. For the same compound, the “Mass loss during TGA” value in series [2] (between 30° C. and 190° C.) was 0.8% mass loss between 30 °C and 190° C.;; in series [2] (between 40° C. and 205° C.), 0.4% mass loss between 40 °C and 205° C.;; in series [2] (between 40° C. and 225° C.) it was 0.7% mass loss between 40 °C and 225 °C; in series [2] (between 43° C. and 230° C.) it was 1.9% mass loss between 43 °C and 230° C.;; in series [2] (between 44° C. and 230° C.) it was 1.0% mass loss between 44 °C and 230 °C. Also, in series [3], the “Wet particle size distribution D10” value was found to be 1.9 μm. Also, the “Wet particle size distribution D90” value in series [3] is 476-683 μm.

In the case of `CC(C)(C=C(C#N)C(=O)N1CCCC(n2nc(-c3ccc(Oc4ccccc4)cc3F)c3c(N)ncnc32)C1)N1CCN(C2COC2)CC1` (stereo not shown) [Compound (I) prepared by a spray drying process described he] [2-[3-[4-amino-3-(2-fluoro-4-phenoxy-phenyl)pyrazolo[3,4-d]pyrimidin-1-yl]piperidine-1-carbonyl]-4-methyl-4-[4-(oxetan-3-yl)piperazin-1-yl]pent-2-enenitrile], the “Tg at 25° C., 0% RH” value in series [4] (listed as Compound (I) prepared by spray drying process described herein) was 93.8 °C. Further, in series [1], the Mean bulk density was determined as 0.20 g/cc, the Mean tapped density was found to be 0.28 g/cc and the Hausner ratio is listed as 1.4. For the same compound, the “Mass loss during TGA” value in series [2] (between 35° C. and 230° C.) was 1.2% mass loss between 35 °C and 230 °C. In addition, in series [3], the “Wet particle size distribution D10” value worked out at 5.24 μm, the “Wet particle size distribution D50” value is on record as 13.3 μm and the “Wet particle size distribution D90” value amounted to 28.4 μm.
